Data reported in patent US20260015339A1, “CALIX[4]ARENES WITH HIGH ANTICANCER ACTIVITY” (UNIVERSITE GRENOBLE ALPES, priority 2023, published 2026).

Assays:
[1] = Cu^+ binding by 1H NMR titration; settings: 1H NMR titration with Cu(MeCN)4BF4, CD3CN/CDCl3 4/1, 298 K
Protocol: Binding abilities and complexation constants of the examples of calix[4]arenes of the present invention and the comparative examples with Cu^+ were evaluated by ^1H NMR titrations at 298 K using copper(I)tetrakis(acetronitrile)tetrafluoroborate.
For example, for each separate calix[4]arene a stock solution of the tested calix[4]arene was prepared in a CD3CN/CDCl3, 4/1 mixture. Using this stock solution, a Cu(MeCN)4BF4 solution was prepared and added by steps of 0.25 equivalent of copper(I) up until 1 equivalent and then by steps of 0.5 equivalent until a total of at least 2 equivalents. ^1H NMR spectra were recorded at a 400 MHz spectrometer at 298 K for the stock solutions of the calix[4]arenes and after each addition of Cu(MeCN)4BF4.
Calix[4]arenes for which a gradual change of the chemical shifts of the ^1H NMR signals (>0.1 ppm for at least one of the signals) was observed upon addition of up to 4-5 equivalents of Cu(MeCN)4BF4 were considered to show weak binding.

[2] = tested on: H322 lung carcinoma cells; test: MTS cytotoxicity assay on H322; type: cell-based; settings: NCI-H322; H322, 72 hours of treatment
Protocol: H322 lung carcinoma cells were seeded in 96-well plates together with the calix[4]arene of the formula (2). Cells were grown in RPMI-1640 supplemented with GlutaMAX™ (Gibco™) and fetal calf serum (FCS, 10%) and treated with a broad range of concentrations of the calix[4]arene of the formula (2). After 72 hours of treatment, the cytotoxicity was measured by means of the IC50 value, using the kit “CellTiter 96R AQuous One Solution Cell Proliferation Assay (MTS)” from Promega™. Following 30 minutes of incubation with the MTS reagent, the endpoint measurements were done in triplicate at 485 nm, using a fluorescence plate reader.
H322 lung carcinoma cells were seeded in 96-well plates together with the compound of the 2nd comparative example of the formula (XI). Cells were grown in RPMI-1640 supplemented with GlutaMAX™ (Gibco™) and fetal calf serum (FCS, 10%) and treated with a broad range of concentrations of the 2nd comparative example of the formula (XI). After 72 hours of treatment, the cytotoxicity was measured by means of the IC50 value, using the kit “CellTiter 96R AQuous One Solution Cell Proliferation Assay (MTS)” from Promega™. Following 30 minutes of incubation with the MTS reagent, the endpoint measurements were done in triplicate at 485 nm, using a fluorescence plate reader.
H322 lung carcinoma cells were seeded in 96-well plates together with the 1st comparative example of the formula (X). Cells were grown in RPMI-1640 supplemented with GlutaMAX™ (Gibco™) and fetal calf serum (FCS, 10%) and treated with a broad range of concentrations of the compound of the formula (X). After 72 hours of treatment, the cytotoxicity was measured by means of the IC50 value, using the kit “CellTiter 96R AQuous One Solution Cell Proliferation Assay (MTS)” from Promega™. Following 30 minutes of incubation with the MTS reagent, the endpoint measurements were done in triplicate at 485 nm, using a fluorescence plate reader.
H322 lung carcinoma cells were seeded in 96-well plates together with the tested calix[4]arenes. Cells were grown in RPMI-1640 supplemented with GlutaMAX™ (Gibco™) and fetal calf serum (FCS, 10%) and treated with a broad range of concentrations of the tested calix[4]arenes. After 72 hours of treatment, the cytotoxicity was measured by means of the IC50 value, using the kit “CellTiter 96R AQuous One Solution Cell Proliferation Assay (MTS)” from Promega™. Following 30 minutes of incubation with the MTS reagent, the endpoint measurements were done in triplicate at 485 nm, using a fluorescence plate reader.

[3] = Cu^+ transport into liposomes with encapsulated BCS; settings: POPC/cholesterol 7:3 LUVs, calix[4]arene to lipid 1:1000, 50 μM copper gradient, F/F0 after 600 s
Protocol: The ability of the examples of calix[4]arenes of the invention and the comparative examples to be delivered into a lipidic bilayer membrane of a liposome from a solution and their capacity to then act as a transporter of Cu^+ was evaluated using bathocuproine disulphonate (hereafter abbreviated “BCS”) encapsulated in large unilamellar vesicles (LUVs, also referred to as liposomes) composed of 1-palmitoyl-2-oleoyl-sn-glycero-3-phosphocholine and cholesterol in a 7:3 ratio.
BCS is a fluorescent water soluble phenantroline derivative that can be used as fluorescent dye for the sensing of Cu^+ through the formation of a non-fluorescent 2:1 complex.
Stock solution of lipids were prepared using deacidified CHCl3 and stored in a freezer. CHCl3 was deacidified by passing through activated basic alumina. The lipids used to prepare the liposomes were 2-oleoyl-1-palmitoyl-sn-glycero-3-phosphocholine (POPC), (purity ≥99%) and cholesterol (purity of 95%). 50 mM sodium phosphate buffer were prepared with Millipore water at pH 7 (±0.1) by mixing the solution of the mono- and the di-protonated phosphate salts. The solution of the dye (BCS) was prepared at 0.5 mM concentration in phosphate buffer.
The lipids solutions were mixed in different ratios in a 5 mL round bottom flask. The POPC/cholesterol molar ratio was 7:3 in all experiments. The total amount of lipids per batch varied depending on the amount of liposomes solution required for the experiment. After mixing the lipid solutions in a round bottom flask, the chloroform was evaporated under a gentle air flow and the resulting lipid film was dried at high vacuum for at least an hour. 500 μL of the BCS solution in phosphate buffer and a magnetic stir bar were added to the flask. The flask was then sonicated for 30 seconds and placed under magnetic agitation for at least an hour. The solution was frozen with liquid nitrogen and heated back to room temperature with warm water ten times to form large unilamellar vesicles (LUVs). The liposome solution was extruded 29 times, using an extrusion kit equipped with a membrane with 200 nm pores. Subsequently, the solution was eluted with the buffer solution used for the experiment through a size exclusion column (Sephadex G-25) to remove the external BCS and then diluted with phosphate buffer to obtain a concentration of 0.4 mM in lipids.
Solutions of the calix[4]arenes were prepared at a concentration of 0.24 mM in DMSO and 5 μL of the solution was added 2 minutes before each transport measurement.
Alternatively, calix[4]arenes were pre-incorporated by combining the calix[4]arene (dissolved in chloroform) with the lipids prior to the evaporation of the chloroform to obtain a lipid film. The concentrations and volumes were chosen to obtain a calix[4]arene to lipid of 1:1000.
Fluorescence measurements were performed with a Horiba FluoroMax 4 spectrometer using a 4-faced quartz cuvette (10 mm×10 mm). For the Cu^+ transport assay, the excitation was set at 278 nm and emission was recorded at 393 nm. These values correspond to the excitation and emission maxima of BCS encapsulated inside LUVs.
The Cu^+ solutions added to the liposomes were obtained by dissolving Cu(MeCN)4BF4 in MeCN at 15.25 mM concentration. The copper solution was then diluted by a factor 5 in a phosphate buffer during the first 30 seconds of the experiment to reach a copper concentration of 3.05 mM. 50 μL of the diluted copper solution was added to 3 mL of liposomes, resulting in a copper gradient of 50 μM. The fluorescence level was monitored for 600 seconds after the addition of the copper solution.
For each run the initial plateau and the initial vertical drop (due to the binding of the exterior dye with Cu^+ and the dilution, 1-4 seconds after the addition) were removed. Then the signal was normalised by dividing the fluorescence values (F) by the value at t=0 second (F0). […]

[4] = tested on: Hepatocellular carcinoma (HepG2/C3A) cells; test: MTT cytotoxicity assay (DL50); type: cell-based; settings: 24 hours of incubation
Protocol: Cytotoxicity was evaluated using the MTT assay. 1.10^4 cells per well were seeded in a flat-bottom 96-well plate and were incubated for 48 hours at 37° C. with 5% CO2 before addition of the different calix[4]arenes at concentrations up to 200 μM. In all experiments, each condition was performed in triplicate in the plate. Besides, each experiment was done three times independently. After 24 hours of incubation in presence of the compounds, medium was discarded, cells were rinsed with PBS and 100 μL of medium containing 0.5 mg/mL of MTT was added to each well. After 30 minutes of incubation at 37° C., MTT solution was discarded and formazan crystals formed were dissolved in 150 μL of 4 mM HCl, 0.1% NP40 in isopropanol. The absorbance in the wells were read in a microplate reader (Tecan microplate reader-550) at 570 nm.

[5] = tested on: PC9 human lung cancer cells; test: MTS cytotoxicity assay, combination with CuCl2, PC9; settings: 72 hours
Protocol: PC9 human lung cancer cells were seeded in 96-well plates together with the calix[4]arene of the formula (2) and CuCl2. Cells were grown in RPMI-1640 supplemented with GlutaMAX™ (Gibco™) and fetal calf serum (FCS, 10%) treated with a broad range of concentrations of the calix[4]arene of the formula (2) or/and CuCl2 from Merck. After 72 hours of treatment, the cytotoxicity was measured by means of the IC50 value, using the kit “CellTiter 96R AQuous One Solution Cell Proliferation Assay (MTS)” from Promega™. Following 30 minutes of incubation with the MTS reagent, the endpoint measurements were done in triplicate at 485 nm, using a fluorescence plate reader.

[6] = tested on: H322 lung carcinoma cells; test: MTS cytotoxicity assay, combination with CuCl2, H322; settings: 72 hours
Protocol: H322 lung carcinoma cells were seeded in 96-well plates together with the calix[4]arene of the formula (2) and CuCl2. Cells were grown in RPMI-1640 supplemented with GlutaMAX™ (Gibco™) and fetal calf serum (FCS, 10%) treated with a broad range of concentrations of the calix[4]arene of the formula (2) or/and CuCl2 from Merck. After 72 hours of treatment, the cytotoxicity was measured by means of the IC50 value, using the kit “CellTiter 96R AQuous One Solution Cell Proliferation Assay (MTS)” from Promega™ Following 30 minutes of incubation with the MTS reagent, the endpoint measurements were done in triplicate at 485 nm, using a fluorescence plate reader.

[7] = tested on: A549 human lung cancer cells; test: MTS cytotoxicity assay, combination with CuCl2, A549; settings: 72 hours
Protocol: A549 human lung cancer cells were seeded in 96-well plates together with the calix[4]arene of the formula (2) and CuCl2. Cells were grown in RPMI-1640 supplemented with GlutaMAX™ (Gibco™) and fetal calf serum (FCS, 10%) treated with a broad range of concentrations of the calix[4]arene of the formula (2) or/and CuCl2 from Merck. After 72 hours of treatment, the cytotoxicity was measured by means of the IC50 value, using the kit “CellTiter 96R AQuous One Solution Cell Proliferation Assay (MTS)” from Promega™. Following 30 minutes of incubation with the MTS reagent, the endpoint measurements were done in triplicate at 485 nm, using a fluorescence plate reader.

## C=CCOc1c2cccc1Cc1cccc(c1OCc1nccn1C)Cc1cccc(c1OCC=C)Cc1cccc(c1OCc1nccn1C)C2 [(3)]
[1]
  Cu^+ binding: Strong binding (means an affinity constant (Ka) equal or greater than 10^5 M^−1)
[2]
  IC50: 5 µM
[3]
  Cu^+ transport: Yes (means that a significant decrease of the fluorescence of encapsulated BCS was observed upon addition of Cu^+ to the liposomes (F/F0<0.65 after 600 s))
[4]
  IC50: 4.5 µM

## CCOC(=O)COc1c2cccc1Cc1cccc(c1OCc1nccn1C)Cc1cccc(c1OCC(=O)OCC)Cc1cccc(c1OCc1nccn1C)C2 [(4)]
[1]
  Cu^+ binding: Strong binding (means an affinity constant (Ka) equal or greater than 10^5 M^−1)
[2]
  IC50: 6 µM
[3]
  Cu^+ transport: Yes (means that a significant decrease of the fluorescence of encapsulated BCS was observed upon addition of Cu^+ to the liposomes (F/F0<0.65 after 600 s))
[4]
  IC50: 3.1 µM

## COc1c2cccc1Cc1cccc(c1OCc1nccn1C)Cc1cccc(c1OC)Cc1cccc(c1OCc1nccn1C)C2 [(5)]
[1]
  Cu^+ binding: Strong binding (means an affinity constant (Ka) equal or greater than 10^5 M^−1)
[2]
  IC50: > 10 µM
[3]
  Cu^+ transport: Yes (means that a significant decrease of the fluorescence of encapsulated BCS was observed upon addition of Cu^+ to the liposomes (F/F0<0.65 after 600 s))
[4]
  IC50: 23 µM

## Cn1ccnc1COc1c2cccc1Cc1cccc(c1O)Cc1cccc(c1OCc1nccn1C)Cc1cccc(c1O)C2 [(6)]
[1]
  Cu^+ binding: Strong binding (means an affinity constant (Ka) equal or greater than 10^5 M^−1)
[2]
  IC50: > 10 µM
[3]
  Cu^+ transport: Yes (means that a significant decrease of the fluorescence of encapsulated BCS was observed upon addition of Cu^+ to the liposomes (F/F0<0.65 after 600 s))
[4]
  IC50: 20.7 µM

## CCCOc1c2cc([N+](=O)[O-])cc1Cc1cccc(c1OCc1nccn1C)Cc1cc([N+](=O)[O-])cc(c1OCCC)Cc1cccc(c1OCc1nccn1C)C2 [(7)]
[1]
  Cu^+ binding: Strong binding (means an affinity constant (Ka) equal or greater than 10^5 M^−1)
[2]
  IC50: 5 µM
[3]
  Cu^+ transport: Yes (means that a significant decrease of the fluorescence of encapsulated BCS was observed upon addition of Cu^+ to the liposomes (F/F0<0.65 after 600 s))
[4]
  IC50: 10.9 µM

## CCCOc1c2cccc1Cc1cccc(c1OCc1nc3ccccc3n1C)Cc1cccc(c1OCCC)Cc1cccc(c1OCc1nc3ccccc3n1C)C2 [(8)]
[1]
  Cu^+ binding: Strong binding (means an affinity constant (Ka) equal or greater than 10^5 M^−1)
[3]
  Cu^+ transport: Yes (means that a significant decrease of the fluorescence of encapsulated BCS was observed upon addition of Cu^+ to the liposomes (F/F0<0.65 after 600 s))
[4]
  IC50: 128 µM

## CCCOc1c2cccc1Cc1cccc(c1OCc1ncco1)Cc1cccc(c1OCCC)Cc1cccc(c1OCc1ncco1)C2 [(9)]
[1]
  Cu^+ binding: Weak binding (means a change of the chemical shifts of the ^1H NMR signals (>0.1 ppm for at least one of the signals) is observed upon addition of up to 4-5 equivalents of Cu(MeCN)4BF4)
[3]
  Cu^+ transport: Yes (means that a significant decrease of the fluorescence of encapsulated BCS was observed upon addition of Cu^+ to the liposomes (F/F0<0.65 after 600 s))
[4]
  IC50: 70 µM

## CCCOc1c2cccc1Cc1cccc(c1OCc1nccs1)Cc1cccc(c1OCCC)Cc1cccc(c1OCc1nccs1)C2 [(10)]
[1]
  Cu^+ binding: Weak binding (means a change of the chemical shifts of the ^1H NMR signals (>0.1 ppm for at least one of the signals) is observed upon addition of up to 4-5 equivalents of Cu(MeCN)4BF4)
[3]
  Cu^+ transport: Yes (means that a significant decrease of the fluorescence of encapsulated BCS was observed upon addition of Cu^+ to the liposomes (F/F0<0.65 after 600 s))

## CCCOc1c2cccc1Cc1cccc(c1OCc1ccccn1)Cc1cccc(c1OCCC)Cc1cccc(c1OCc1ccccn1)C2 [(38)]
[1]
  Cu^+ binding: Strong binding (means an affinity constant (Ka) equal or greater than 10^5 M^−1)
[3]
  Cu^+ transport: Yes (means that a significant decrease of the fluorescence of encapsulated BCS was observed upon addition of Cu^+ to the liposomes (F/F0<0.65 after 600 s))

## Oc1c(I)cc(Cl)c2cccnc12 [Clioquinol, clioquinol, reference compound]
[4]
  IC50: 67 µM

## [Cl][Cu][Cl] [Cu^2+, CuCl2]
[5]; PC9, Cu^2+ 1 μM alone ((2) 0 μM)
  percentage of cell viability: 90.9%
[5]; PC9, Cu^2+ 5 μM alone ((2) 0 μM)
  percentage of cell viability: 87.1%
[5]; PC9, Cu^2+ 10 μM alone ((2) 0 μM)
  percentage of cell viability: 81.0%
[5]; PC9, Cu^2+ 25 μM alone ((2) 0 μM)
  percentage of cell viability: 77.1%
[5]; PC9, Cu^2+ 50 μM alone ((2) 0 μM)
  percentage of cell viability: 68.8%
[6]; H322, Cu^2+ 1 μM alone ((2) 0 μM)
  percentage of cell viability: 87.2%
[6]; H322, Cu^2+ 5 μM alone ((2) 0 μM)
  percentage of cell viability: 83.3%
[6]; H322, Cu^2+ 10 μM alone ((2) 0 μM)
  percentage of cell viability: 79.5%
[6]; H322, Cu^2+ 25 μM alone ((2) 0 μM)
  percentage of cell viability: 72.9%
[6]; H322, Cu^2+ 50 μM alone ((2) 0 μM)
  percentage of cell viability: 60.6%
[7]; A549, Cu^2+ 1 μM alone ((2) 0 μM)
  percentage of cell viability: 89.4%
[7]; A549, Cu^2+ 5 μM alone ((2) 0 μM)
  percentage of cell viability: 88.1%
[7]; A549, Cu^2+ 10 μM alone ((2) 0 μM)
  percentage of cell viability: 84.6%
[7]; A549, Cu^2+ 25 μM alone ((2) 0 μM)
  percentage of cell viability: 85.6%
[7]; A549, Cu^2+ 50 μM alone ((2) 0 μM)
  percentage of cell viability: 79.4%

## CCCOc1c2cccc1Cc1cccc(c1OCc1nccn1C)Cc1cccc(c1OCCC)Cc1cccc(c1OCc1nccn1C)C2 [formula (2)]
[4]
  IC50: 3.1 µM
